Measured values from patent US20240390301A1, “COMBINATIONS OF PERIPHERAL 5-HT2A RECEPTOR ANTAGONISTS AND CENTRAL 5-HT2A RECEPTOR AGONISTS” (priority 2021, published 2024).

Legend:
[1] = system: DOPR-induced elevation of MABP; assay: Effect on DOPR-induced blood pressure (MABP) elevation in anesthetized rats; format: in vivo, Sprague-Dawley rats
Method: Key peripheral 5-HT2A receptor antagonists were tested for their ability to block the increases in blood pressure (BP) induced by a maximally effective dose (in terms of HTR response) of 2,5-dimethoxy-4-propylamphetamine (DOPR) in anesthetized rats, with the key results summarized in FIGS. 5-9. FIG. 5 depicts in a bar graph the effect of xylamidine pre-treatment on DOPR-induced elevation of MABP in the rat. The indicated doses of xylamidine or vehicle were administered SC, followed 10 minutes later by DOPR (0.32 mg/kg, SC), and mean percent change in MABP relative to the baseline recording for each group was calculated for the 20 minutes immediately after DOPR administration (10-30 min after administration of xylamidine). *p<0.05, **p<0.01 vs. vehicle using Dunnett's multiple comparison test. FIG. 6 depicts in a bar graph the effect of BW501C67 pre-treatment on DOPR-induced elevation of MABP in the rat. The indicated doses of BW501C67 or vehicle were administered SC, followed 10 minutes later by DOPR (0.32mg/kg, SC), and mean percent change in MABP relative to the baseline recording for each group was calculated for the 20 minutes immediately after DOPR administration (10-30 min after administration of BW501C67). *p<0.05 vs. vehicle using Dunnett's multiple comparison test. FIG. 7 depicts in a bar graph the effect of xylamidine pre-treatment on DOPR-induced elevation of MABP in the rat. The indicated doses of xylamidine or vehicle were administered SC. followed 10 minutes later by DOPR (0.32 mg/kg, SC), and mean percent change in MABP relative to the baseline recording for each group was calculated for the period 45-55 minutes after DOPR administration (55-65 min after administration of xylamidine). *p<0.05, ***p<0.001 vs. vehicle using Dunnett's multiple comparison test. FIG. 8 depicts in a bar graph the effect of BW501C67pre-treatment on DOPR-induced elevation of MABP in the rat. The indicated doses of BW501C67or vehicle were administered SC, followed 10 minutes later by DOPR (0.32 mg/kg, SC), and mean percent change in MABP relative to the baseline recording for each group was calculated for the period 45-55 minutes after DOPR administration (55-65 min after administration of BW501C67). *p<0.05, **p<0.01, ***p<0.001 vs. vehicle using Dunnett's multiple comparison test. FIG. 9 depicts in a bar graph the effect of Compound 14a pre-treatment on DOPR-induced elevation of MABP in the rat. The indicated doses of Compound 14a or vehicle were administered SC, followed 10 minutes later by DOPR (0.32 mg/kg, SC), and mean percent change in MABP relative to the baseline recording for each group was calculated for the 20 minutes immediately after DOPR administration (10-30 min after administration of Compound 14a).
Animals. Adult male Sprague-Dawley rats aged 8 weeks (body weight ˜270 g) were used in these experiments. Animals were pair housed under controlled temperatures and 12-hour light/dark cycles (lights on between 07:00-19:00 h), with ad libitum food and water. The protocol was approved by the Eurofins Advinus Institutional Animal Care and Use Committee. […]
Drugs and Drug administration. […] The 5-HT2A receptor agonist DOPR was then administered at 1 dose (0.32 mg/kg. SC, in saline, calculated based on the free base) to all animals 10 min after pretreatment with the test peripheral antagonist or vehicle (saline). […]

Rat plasma stability = format: in vitro ADME; conditions: 37° C.
Method: The results were used to confirm that the plasma protein binding results were not confounded by poor plasma stability.
Method 1. […] Plasma was centrifuged at 4,000 rpm for 5 min and any clots were remove.
Method 2. […]

in vitro = conditions: for fraction unbound at 4 h, 5 μM: pH 7.4
Method: Method 1. Aliquots of 50 μL loading matrix containing test compound (2 μM final incubation concentration) or control compound in triplicate were transferred to a Sample Collection Plate. The samples were matched with opposite blank buffer to obtain a final volume of 100 μL, with a volume ratio of matrix: Dialysis Buffer of 1:1 (v:v) in each well. Stop solution (200 ng/ml tolbutamide and 200 ng/mL labetalol in ACN) was added to these TO samples of test compound and control compound. The plate was sealed and shaken at 800 rpm for 10 min. An aliquot of 100 μL of the loading matrix containing test compound or control compound was transferred to the donor side of each dialysis well in triplicate and 100 μL of the Dialysis Buffer was loaded to the receiver side of the well. Then the plate was rotated at approximately 100 rpm in a humidified incubator with 5% CO2 at 37±1° C. for 4 hours. At the end of the dialysis, aliquots of 50 μL samples from the buffer side and matrix side of the dialysis device were taken into new 96-well plates (Sample Collection Plates). An equal volume of opposite blank matrix (buffer or matrix) in each sample was added to reach a final volume of 100 μL, with volume ratio of matrix: Dialysis Buffer of 1:1 (v:v) in each well. All samples were further processed by protein precipitation before LC-MS/MS analysis.
Method 2. Aliquots (200 μL) of positive controls and test compounds at 5 μM (triplicates) were separately added to the plasma chamber and […] of phosphate buffered saline (pH 7.4) was added to the buffer chamber of the inserts. After sealing the rapid equilibrium dialysis (RED) device with an adhesive film, dialysis was performed in an incubator at 37° C. with shaking at 100 RPM for 4 hours. Aliquots (50 μL) of warfarin and test compounds were added to four 0.5 mL micro fuse tubes. Two aliquots were frozen immediately (0-minute sample). The other two aliquots were incubated at 37° C. for 4 hours along with the RED device. Following dialysis, an aliquot of 50 μL was removed from each well (both plasma and buffer side) and diluted with an equal volume of opposite matrix (dialyzed with the other matrix) to nullify the matrix effect. Similarly, 50 μL of buffer was added to recovery and stability samples. An aliquot of 100 μL was used for LC-MS/MS analysis following protein precipitation with ACN containing internal standard.

[2] = 10-30 min after antagonist administration (0.01 to 10 mg/kg SC), DOPR 0.32 mg/kg SC
[3] = 55-65 min after antagonist administration (45-55 min after DOPR 0.32 mg/kg SC)

SMILES | Attenuation of DOPR-induced elevation of MABP [1, 2] | Attenuation of DOPR-induced elevation of MABP [1, 3] | % Remaining (120 minutes), rat plasma (Rat plasma stability; Method 1: 2 μM) | fraction unbound at 4 h, 2 μM (in vitro; rat, plasma) | % Remaining (120 minutes), rat plasma (Rat plasma stability; Method 2: 5 μM) | fraction unbound at 4 h, 5 μM (in vitro; rat, plasma) | Mean % bound (rat plasma protein binding) (in vitro; Method 2: RED, 5 μM, 4 hours, 37° C.)
CC(CNC(=N)CNc1ccccc1)Oc1cccc(Cl)c1.O=CO (stereo not drawn) [BW501C67, N-(2-(3-chlorophenoxy)propyl)-2-(phenylamino)acetimidamide formate] | significantly attenuated | showing activity at lower doses | 100.7% | 0.107 |  |  | 
CC(C)COc1ccc(CNC(=O)N(Cc2ccc(F)cc2)C2CCN(C(=O)CC[C@H](N)C(=O)O)CC2)cc1 [Compound 14a, (S)-2-amino-5-(4-(1-(4-fluorobenzyl)-3-(4-isobutoxybenzyl)ureido)piperidin-1-yl)-5-oxopentanoic acid] | failed to significantly attenuate |  |  |  | 97% | 0.06 | 
COc1cccc(CCc2ccccc2OCC(CN(C)C)OC(=O)CCC(=O)O)c1 (stereo not drawn) [sarpogrelate] |  |  |  |  | 67% | 0.002 | 
COc1cccc(C(=O)Nc2ccc(OCCN3CCOCC3)c(-c3ccnn3C)c2)c1 [temanogrel] |  |  |  |  | 95% | 0.091 | 
COc1cccc(OC(C)CNC(=N)Cc2cccc(C)c2)c1.O=C(O)C(F)(F)F (stereo not drawn) [xylamidine, N-(2-(3-methoxyphenoxy)propyl)-2-(m-tolyl) acetimidamide trifluoroacetate] | significantly attenuated | showing activity at lower doses |  |  | 94% |  | 65.6%
